The source of these data is patent publication US20260242398A1, “BENZOPYRIMIDIN-4(3H)-ONES AS PI3K INHIBITORS” (OnKure, Inc., priority 2022, published 2026).

Common to all, as to assay type: cell-based
Assay [1] deals with T47D cells expressing mutant PI3Ka (H1047R). In words: In vitro cell proliferation (CellTiter-Glo, 72 hours), T47D cells. Particulars: inhibition of proliferation, read-out: Avg T-47D EC50. As to the method:
(§1) In Vitro Cell Proliferation: Determination of EC50 Values for Inhibition of Proliferation in T47D Cells Expressing Mutant PI3Ka (H1047R) Mutation and SKBR3 Cells Express WT PI3Ka.
(§2) T47D or SKBR3 cells were trypsinized, resuspended in culture media and seeded onto assay ready plates. T47D culture media consisted of RPMI, 10% FBS and Insulin (0.2 units/mL). SKBR3 culture media consisted of McCoys 5a and 10% FBS. Cells were seeded at a density of 1,500 cells/well and dispensed in 50 uL onto 384 well assay ready plates (Corning, 89089-790). Assay ready plates had previously been stamped with 10-point dilutions of compounds of interest, as well as controls. The Echo655 is used to stamp plates at 40 nL of compound or DMSO. Cells were grown for 72 hours at 37° Celsius and 5% CO2. After 72 hours, cells were equilibrated at room temperature for 15 minutes. 30 uL of CellTiter-Glo reagent is added to the plate, which is then shaken for 30 minutes at temperature at 300-500 rpm. Cells are then read on an Envision plate reader. The percentage of inhibition of proliferation was calculated using the following formula: % Inhibition=100×(LumD−LumSample)/(LumD−LumInh), where D is obtained from cells treated with 0.1% DMSO only; Inh is obtained from cells treated with 10 uM Alpelisib. The effective concentration achieving 50% inhibition of proliferation (EC50) is calculated by fitting the Curve using XWfit (v5.3.1.3), equation 201: Y=Bottom+(Top−Bottom)/(1+10^((Log EC50−X)*HillSlope)).
In general terms: ATP-based viability assays read luminescence as a measure of living cells.

The subject of assay [2] is SKBR3 cells express WT PI3Ka. In words: In vitro cell proliferation (CellTiter-Glo, 72 hours), SKBR3 cells. Particulars: inhibition of proliferation. As for the experimental part:
as §1, §2

The subject of assay [3] is phosphorylation of AKT (pAKT) in T47D cells expressing mutant PI3Ka (H1047R). In words: In vitro cell pAKT (Ser473) HTRF, T47D cells. Particulars: inhibition of pAKT, read-out: Avg T-47D IC50. As to the method: (§3) In Vitro Cell pAKT: Determination of IC50 Values for Inhibition of Phosphorylation of AKT (pAKT) in T47D Cells Expressing Mutant PI3Ka (H1047R) Mutation and SKBR3 Cells Express WT PI3Ka.
(§4) T47D or SKBR3 cells were trypsinized, resuspended in culture media and seeded onto assay ready plates. T47D culture media consisted of RPMI, 10% FBS and Insulin (0.2 units/mL). SKBR3 culture media consisted of McCoy's 5a and 10% FBS. Cells were seeded at a density of 5000 cells/well and dispensed in 12.5 uL onto 384 well assay ready plates (Perkin Elmer, 6008238)). Assay ready plates had previously been stamped with 10-point dilutions of compounds of interest, as well as controls. The Echo655 is used to stamp plates at 12.5 nL of compound or DMSO. Cells were grown for 6 hour at 37° Celsius and 5% CO2. After 6 hour, 4 uL of Lysis buffer reagent was added to the plate, which was then centrifuged for 1 minute at 1000 rpm. Then the plate was incubated at room temperature for 30 minutes. After 30 minutes, 4 uL of antibody mix containing Eu Cryptate, d2 Cryptate, and detection buffer, was added to the plate. The plate was centrifuged for 1 minute at 1000 rpm and then incubated overnight at room temperature. The plate was read on an Envision plate reader using the HTRF protocol. The percentage of inhibition of AKT phosphorylation was calculated using the following formula: % Inhibition=100×(pAKTHC−pAKTSample)/(pAKTHC−pAKTLC)), where pAKTHC is obtained from cells treated with 0.1% DMSO only; pAKTLC is obtained from cells treated with 10 uM Alpelisib. The IC50 (concentration achieving 50% inhibition of pAKT) is calculated by fitting the Curve using XWfit (v5.3.1.3), equation 201: Y=Bottom+(Top−Bottom)/(1+10^((Log IC50−X)*HillSlope)).

In assay [4] the test system is phosphorylation of AKT (pAKT) in SKBR3 cells express WT PI3Ka. In words: In vitro cell pAKT (Ser473) HTRF, SKBR3 cells. As to conditions: inhibition of pAKT. As to the method:
as §3, §4

Structures are written as SMILES. Like-named read-outs stand apart in the source and are kept apart here. Where only a bound is given, the exact number is not on record here.

In the case of `CC(Nc1ccc(F)cc1C(=O)O)c1cc(Cl)cc2c(=O)n(C)c(N3CCN(CC(F)(F)F)CC3)nc12` (single isomer, unassigned) [Example 25, 2-((1-(6-chloro-3-methyl-4-oxo-2-(4-(2,2,2-trifluoroethyl)piperazin-1-yl)-3,4-dihydroquinazolin-8-yl)ethyl)amino)-5-fluorobenzoic acid], the EC50 in assay [1] and in assay [2] was 2 to 15 µM each time. Also, the IC50 in assay [3] (6 hour) and in assay [4] (6 hour) was greater than 15 µM throughout.

`CC(Nc1ccccc1C(=O)O)c1cc(Cl)cc2c(=O)n(C)c(N3CCN(CC(F)(F)F)CC3)nc12` (single isomer, unassigned) [Example 26, 2-((1-(6-chloro-3-methyl-4-oxo-2-(4-(2,2,2-trifluoroethyl)piperazin-1-yl)-3,4-dihydroquinazolin-8-yl)ethyl)amino)benzoic acid]: the EC50 in assay [1] is 0.5 to 2 µM; in assay [2] (Homo sapiens, SK-BR-3, 72 h), greater than 15 µM. The IC50 in assay [3] (6 hour) is 0.001 to 1 µM; in assay [4] (Homo sapiens, SK-BR-3, 6 h) it was greater than 15 µM.

Consider `CC(Nc1ccccc1C(=O)O)c1cc(Cl)cc2c(=O)n(C)c(N3CCN(CC(F)(F)F)CC3)nc12` (single isomer, unassigned) [Example 27, 2-((1-(6-chloro-3-methyl-4-oxo-2-(4-(2,2,2-trifluoroethyl)piperazin-1-yl)-3,4-dihydroquinazolin-8-yl)ethyl)amino)benzoic acid], for which the EC50 in assay [1] and in assay [2] was greater than 15 µM throughout. Further, the IC50 in assay [3] (6 hour) and in assay [4] (6 hour) was greater than 15 µM in each case.

As to `Cc1cc(C(C)Nc2ccc(F)cc2C(=O)O)c2nc(N3CCC(C)(C)CC3)n(C)c(=O)c2c1` (single isomer, unassigned) [Example 30, 2-((1-(2-(4,4-dimethylpiperidin-1-yl)-3,6-dimethyl-4-oxo-3,4-dihydroquinazolin-8-yl)ethyl)amino)-5-fluorobenzoic acid], the EC50 in assay [1] and in assay [2] was 2 to 15 µM each time. For the same compound, the IC50 in assay [3] (6 hour) and in assay [4] (6 hour) was greater than 15 µM in each case.

Turning to `Cc1cc(C(C)Nc2ccccc2C(=O)O)c2nc(SCc3ccc(Cl)c(OC(F)(F)F)c3)n(C)c(=O)c2c1` (single isomer, unassigned) [Example 31, 2-((1-(2-((4-chloro-3-(trifluoromethoxy)benzyl)thio)-3,6-dimethyl-4-oxo-3,4-dihydroquinazolin-8-yl)ethyl)amino)benzoic acid], the EC50 lay in the range of 2 to 15 µM in assay [1] (Homo sapiens, T47D, 72 h) and 2 to 15 µM in assay [2] (Homo sapiens, SK-BR-3, 72 h). The IC50 is greater than 15 µM in assay [3] (Homo sapiens, T47D, 6 h) and greater than 15 µM in assay [4] (Homo sapiens, SK-BR-3, 6 h).

Consider `Cc1cc(C(C)Nc2ccccc2C(=O)O)c2nc(SCc3ccc(Cl)c(OC(F)(F)F)c3)n(C)c(=O)c2c1` (single isomer, unassigned) [Example 32, 2-((1-(2-((4-chloro-3-(trifluoromethoxy)benzyl)thio)-3,6-dimethyl-4-oxo-3,4-dihydroquinazolin-8-yl)ethyl)amino)benzoic acid], for which the EC50 in assay [1] and in assay [2] was 2 to 15 µM in each case. The IC50 in assay [3] (6 hour) and in assay [4] (6 hour) was greater than 15 µM throughout.

Consider `CC(Nc1ccc(F)cc1C(=O)O)c1cc(F)cc2c(=O)n(C)c(N3CCN(CC(F)(F)F)CC3)nc12` (single isomer, unassigned) [Example 33, 5-fluoro-2-((1-(6-fluoro-3-methyl-4-oxo-2-(4-(2,2,2-trifluoroethyl)piperazin-1-yl)-3,4-dihydroquinazolin-8-yl)ethyl)amino)benzoic acid], for which the EC50 in assay [1] is 0.001 to 0.5 µM; in assay [2] (Homo sapiens, SK-BR-3, 72 h), greater than 15 µM. Also, the results for the IC50 in assay [3] (6 hour) and in assay [4] (6 hour) were 0.001 to 1 µM and greater than 15 µM, respectively.

On to `CC(Nc1ccc(F)cc1C(=O)O)c1cc(F)cc2c(=O)n(C)c(N3CCN(CC(F)(F)F)CC3)nc12` (single isomer, unassigned) [Example 34, 5-fluoro-2-((1-(6-fluoro-3-methyl-4-oxo-2-(4-(2,2,2-trifluoroethyl)piperazin-1-yl)-3,4-dihydroquinazolin-8-yl)ethyl)amino)benzoic acid], for which the EC50 in assay [1] and in assay [2] was greater than 15 µM throughout. The IC50 is greater than 15 µM in assay [3] (6 hour) and 5 to 15 µM in assay [4] (6 hour).

`CC(Nc1ccccc1C(=O)O)c1cc(F)cc2c(=O)n(C)c(N3CCN(CC(F)(F)F)CC3)nc12` (single isomer, unassigned) [Example 36, 2-((1-(6-fluoro-3-methyl-4-oxo-2-(4-(2,2,2-trifluoroethyl)piperazin-1-yl)-3,4-dihydroquinazolin-8-yl)ethyl)amino)benzoic acid]: the EC50 in assay [1] and in assay [2] was greater than 15 µM each time. Also, the IC50 in assay [3] (6 hour) and in assay [4] (6 hour) was greater than 15 µM each time.

In the case of `CC(Nc1ccccc1C(=O)O)c1cc(C(F)(F)F)cc2c(=O)n(C)c(N3CCN(CC(F)(F)F)CC3)nc12` (single isomer, unassigned) [Example 37, 2-((1-(3-methyl-4-oxo-2-(4-(2,2,2-trifluoroethyl)piperazin-1-yl)-6-(trifluoromethyl)-3,4-dihydroquinazolin-8-yl)ethyl)amino)benzoic acid], the EC50 in assay [1] is 0.5 to 2 µM; in assay [2] (Homo sapiens, SK-BR-3, 72 h), 2 to 15 µM. Also, the IC50 is 0.001 to 1 µM in assay [3] (6 hour) and greater than 15 µM in assay [4] (Homo sapiens, SK-BR-3, 6 h).

As for `CC(Nc1ccccc1C(=O)O)c1cc(C(F)(F)F)cc2c(=O)n(C)c(N3CCN(CC(F)(F)F)CC3)nc12` (single isomer, unassigned) [Example 38, 2-((1-(3-methyl-4-oxo-2-(4-(2,2,2-trifluoroethyl)piperazin-1-yl)-6-(trifluoromethyl)-3,4-dihydroquinazolin-8-yl)ethyl)amino)benzoic acid], the results for the EC50 in assay [1] and in assay [2] were greater than 15 µM and 2 to 15 µM, respectively. The IC50 in assay [3] (6 hour) and in assay [4] (6 hour) was greater than 15 µM in each case.

As to `Cc1cc(C(C)Nc2ccccc2C(=O)O)c2nc(SCC(C)C)n(C)c(=O)c2c1` (single isomer, unassigned) [Example 39, 2-((1-(2-(isobutylthio)-3,6-dimethyl-4-oxo-3,4-dihydroquinazolin-8-yl)ethyl)amino)benzoic acid], the concentration giving a half-maximal response (EC50) in assay [1] is greater than 15 µM; in assay [2] (Homo sapiens, SK-BR-3, 72 h), greater than 15 µM. Also, the IC50 in assay [3] (6 hour) is greater than 15 µM; in assay [4] (Homo sapiens, SK-BR-3, 6 h), greater than 15 µM.

As for `Cc1cc(C(C)Nc2ccccc2C(=O)O)c2nc(SCC(C)C)n(C)c(=O)c2c1` (single isomer, unassigned) [Example 40, 2-((1-(2-(isobutylthio)-3,6-dimethyl-4-oxo-3,4-dihydroquinazolin-8-yl)ethyl)amino)benzoic acid], the EC50 is 2 to 15 µM in assay [1] and greater than 15 µM in assay [2]. In addition, the values for the IC50 in assay [3] (6 hour) and in assay [4] (6 hour) were 1 to 5 µM and greater than 15 µM, respectively.

In the case of `Cc1cc(C(C)Nc2ccccc2C(=O)O)c2nc(Nc3ccc(Cl)cc3)n(C)c(=O)c2c1` (single isomer, unassigned) [Example 41, 2-((1-(2-((4-chlorophenyl)amino)-3,6-dimethyl-4-oxo-3,4-dihydroquinazolin-8-yl)ethyl)amino)benzoic acid], the concentration giving a half-maximal response (EC50) lay in the range of 2 to 15 µM in assay [1] (Homo sapiens, T47D, 72 h) and 2 to 15 µM in assay [2]. Also, the IC50 in assay [3] (Homo sapiens, T47D, 6 h) was greater than 15 µM; in assay [4] (Homo sapiens, SK-BR-3, 6 h), greater than 15 µM.

Usually EC50 stands for the midpoint of the concentration-response curve. What is called IC50 is the midpoint of a concentration-inhibition curve.
